Here are results for 24 compounds from the SangsterLogP compilation.

In general, logP refers to the decadic logarithm of the partition coefficient of the neutral form, usually between octanol and water. Lower therefore signals a more hydrophilic compound.

Each structure is given as a SMILES string.

The nature of the first data set: method code SF, from Fulcrand, P.; Berge, G.; Noel, A. (1978). Hydrazides as monoamine oxidase inhibitors. Hansch and Free Wilson correlations. Eur J Med Chem, 13(2)177-182.
For the compound `CC(C)NNC(=O)COc1ccc(Cl)cc1`, the logP is 2.01.

A short description of another data set: method code SF-AS, from Fulcrand, P.; Berge, G.; Noel, A. (1978). Hydrazides as monoamine oxidase inhibitors. Hansch and Free Wilson correlations. Eur J Med Chem, 13(2)177-182.
For the compound `CC(C)NNC(=O)COc1ccccc1`, the logP came out at 1.24.
On the same count and under the same terms, for `CC(C)NNC(=O)COc1ccccc1Cl` the value was 1.82; for `Cc1cccc(OCC(=O)NNC(C)C)c1`, 1.77.
The same measure, in the same setting: for `Cc1cccc(OC(C)C(=O)NNC(C)C)c1` (centres undefined) the value was 1.88; for `CC(C)NNC(=O)C(C)Oc1cccc(Cl)c1` (centres undefined), 2.18.
Same read-out and setting: for `CCNNC(=O)COc1ccc(Cl)cc1` the value was 1.73; for `COc1ccc(OCC(=O)NNC(C)C)cc1`, 1.21; for `CC(C)NNC(=O)C(C)(C)Oc1ccc(Cl)cc1`, 2.56.
In turn, `CCNNC(=O)COc1ccccc1` yielded a logP of 1.
Still for that read-out and setting: for `O=C(COc1ccc(Cl)cc1)NNCc1ccccc1` the value was 2.92; for `CC(C)NNC(=O)COc1cccc(Cl)c1`, 1.91.
The same measure, in the same setting: in the case of `CC(C)NNC(=O)C(C)Oc1ccc(Cl)cc1` (centres undefined) it was 2.14.
The same measure, in the same setting: in the case of `CC(C)NNC(=O)C(C)(C)Oc1ccccc1` it was 1.88; in that of `O=C(COc1ccccc1)NNCc1ccccc1`, 2.16.
In turn, `Cc1ccc(OCC(=O)NNC(C)C)cc1` had a logP of 1.81.
The same measure, in the same setting: in the case of `CC(NNC(=O)COc1ccccc1)c1ccccc1` (centres undefined) it was 2.46.
Same read-out and setting: for `CC(C)NNC(=O)C(C)Oc1ccccc1Cl` (centres undefined) the value was 2.
On the same count and under the same terms, in the case of `COc1ccc(OCC(=O)NNC(C)c2ccccc2)cc1` (centres undefined) it was 2.39.
Regarding `Cc1ccccc1OCC(=O)NNC(C)C`, the logP was 1.83.
Same read-out and setting: in the case of `COc1cccc(OCC(=O)NNC(C)C)c1` it was 1.33.
The compound `CC(C)NNC(=O)C(C)Oc1ccccc1` (centres undefined) registered a logP of 1.39.
The same measure, in the same setting: in the case of `Cc1ccc(OCC(=O)NNC(C)c2ccccc2)cc1` (centres undefined) it was 2.87; in that of `COc1ccccc1OCC(=O)NNC(C)C`, 1.11.
